One block for each substance: values may come before it. No end group written: not given here.
How the values were obtained:
female C57BL/6 mice = experiment: Estrus cycling by daily vaginal smears; assay type: in vivo, mouse; details: larger experiment, 2.5 mg/kg
Excerpt: To investigate the effect of the angiogenesis inhibitors used above on estrus cycling, mice from the first two studies underwent daily vaginal smears in the middle of the endometriosis experiment. The stage of the estrus cycle was classified by evaluating the cells present at the cytological staining. Briefly, this was done as follows. In order to synchronize estrus cycling prior to surgery, mice were housed in groups of 5 for a week. After endometriosis surgery, with the intention to prevent the suspension of cycling, all mice were housed in individual cages. In the absence of a male, female mice housed in groups may become anestrus. Starting post surgical week two, estrus cycling was evaluated by cytological analysis of daily vaginal smears over one week's period. Exams were performed each day during the early morning hours. Autoclaved, wetted, blunt toothpicks were used to gently scrape the superficial cell layer of the animal's vagina. Cells were transferred to a drop of Evan's blue in 0.9% saline on a glass slide for staining, sealed under a glass cover slip and examined under a microscope (Carl Zeiss, Thornwood, N.Y.). Subsequently, each slide was analyzed under low magnification (×40 to ×100) by two independent investigators, who were masked for the form of treatment and previous data from every mouse.

[1] = tested on: human pancreatic tumor cells BxPC-3; experiment: BxPC-3 human pancreatic tumor model in SCID mice; assay type: in vivo; details: human endostatin peptides s.c. twice a day at 7 mg/kg/d, final measurement at 28 days, n=3
Description: These peptides were initially tested for anti-tumor activity employing the human pancreatic tumor cells BxPC-3 cells, which were implanted in the s.c. dorsa of SCID mice. For systemic treatment, human endostatin peptides, P1-P8, were administered subcutaneously (s.c.) twice a day at 7 mg/kg/d due to the high clearance rate from the mouse circulation. Full-length Fc-Endostatin, hFcES was administered subcutaneously only once per day at a dose of 20 mg/kg/d. PBS was used as a control.
(§1) BxPC-3 and LLC cells were grown in cell culture as described above. […] Mice were shaved and the dorsal skin was cleaned with ethanol before tumor cell injection. A suspension of 5×10^6 tumor cells in 0.1 ml RPMI-1640 (for BxPC-3) or DMEM (for LLC) was injected subcutaneously (s.c.) into the dorsa of mice at the proximal midline. BxPC-3 cells were implanted in SCID mice and LLC in C57B1/6J mice.
(§2) The mice were weighed and tumors were measured every 3-5 days in two diameters with a dial-caliper. Volumes were determined using the formula a2×b×0.52 (where a is the shortest and b is the longest diameter). Data is represented as volume of treated tumor over control (T/C). At the completion of each experiment, the mice were euthanized with CO2 asphyxiation. Tumors were fixed in 10% buffered Formalin (Fisher Scientific, Fair Lawn, N.J.) and paraffin-embedded.
(§3) For treatment of tumor-bearing mice, tumor volumes were allowed to grow to approximately 100 mm^3, and mice were randomized. Treatment was performed by single bolus s.c. injections. Peptides were administered twice a day (every 12 hrs). Doses indicated for peptides were corrected for the purity of peptides (approximately 70%). For example, mice injected with 4 mg/kg/d peptide, were actually injected with 2.8 mg/kg/d after correction. The unpaired Student t-test was used for statistical analysis.

LLC = experiment: Lewis lung carcinoma (LLC) tumor model in C57Bl/6J mice; assay type: in vivo, mouse; details: for inhibited LLC (tumor inhibition): peptides s.c. twice a day at 2.8 mg/kg/d, C57B1/6J mice; for tumor volume: LLC, s.c. twice a day 2.8 mg/kg/day, n=5 (FIG. 7)
Description: Control mice were treated with PBS. In these experiments, LLC cells were implanted into the s.c. dorsa of C57B1/6J mice, and systemically treated. Peptides (mP1, mP2, mP5, and mP6) were injected (s.c.) twice a day at a dose of 2.8 mg/kg/d, whereas endostatin and PBS were administered once a day at a dose of 20 mg/kg/d.
as §1
Animals with Lewis Lung carcinoma (600-800 mm^3 tumors) were euthanized, and the skin overlying the tumor was cleaned with Betadine and ethanol. Tumor tissue was excised under aseptic conditions. A suspension of tumor cells in 0.9% normal saline was made by passage of viable tumor tissue through a sieve and a series of sequentially smaller hypodermic needles of diameter 22- to 30-gauge. The final concentration was adjusted to 1×10^7 cells/ml, and the suspension was placed on ice. The injection of tumor cells was performed as described above.
as §2, §3

[2] = tested on: human microvascular endothelial cells (HMVECs); experiment: VEGF-induced migration of HMVECs, modified Boyden chamber; assay type: cell-based
Description: Endostatin peptides were tested for anti-endothelial cell migration activity. Inhibition of VEGF-induced migration of human microvascular endothelial cells (HMVECs) was determined using several doses of endostatin peptides (FIG. 5). Human peptides were used because the cells were of human origin and the migration response of the HMVECs was assayed using a modified Boyden chamber. VEGF (5 ng/ml) was used a chemotactic agent and cells were challenged with human endostatin (Entremed; EM-ES), human Fc-Endostatin (nFcES), human P1 (hP1), human P2 (hP2), human P6 (hP6), and human P1-H1/3A (hP1-H1/3A). Total migration per membrane was quantified from the capture images using Scion Image Software (National Institutes of Health) and the unpaired Student T test was used for statistical analysis. […] No significant differences in inhibition between these concentrations were observed. At higher and lower concentrations less or no inhibition was observed. At 500 ng/ml of hP1 no inhibition was observed. Thus, similar to full-length endostatin, there is a U-shaped response to hP1 inhibition of EC migration.
The motility response of HMVEC-d cells was assayed using a modified Boyden chamber. Cells were plated in T75-cm2 flasks at 0.5×10^6 cells per flask and allowed to grow for 48 h (˜70% confluent) prior to the migration assay. To facilitate cell adhesion, the upper membrane of a transwell ([…]; Costar) was coated with fibronectin ([…]; Becton Dickinson, Bedford, Mass.) for 1 h at 37° C. Coated membranes were rinsed with PBS and allowed to air dry immediately before use. Cells were detached by trypsinization, treated with trypsinization neutralization solution (Clonetics), and resuspended at a final concentration of 1×10^6 cells/ml in serum-free endothelial basal medium (EBM; Clonetics) containing 0.1% BSA. Cells (200,000 in 0.2 ml) were then treated with 0.2 ml of EBM/BSA containing endostatin or peptides at the indicated concentrations. Cells were incubated for 20 min. at 37° C. with occasional shaking. Cells (50,000 in 100 μl) were added to the upper chamber of the transwell. EBM or EBM supplemented with VEGF (5 ng/ml) was added to the lower chamber and cells were allowed to migrate toward the bottom chamber for 4 h in a humidified incubator containing 5% CO2. Transwell filters were rinsed once with PBS and fixed and stained using a Diff-Quik staining kit (Baxter) following the manufacturer's protocol. Non-migrated cells were removed from the upper chamber with a cotton swab. Stained filters were cut out of the chamber and mounted onto slides using Permount (Fisher). The number of migrated cells was measured using microscopy (three fields from each membrane were captured using a 40× objective), and images were captured with a CCD camera using SPOT software. Total migration per membrane was quantified from the captured images using Scion Image software (National Institutes of Health). All experiments were run in triplicate. The unpaired Student t-test was used for statistical analysis.

C57B1/6J mice = experiment: Corpus luteum formation in ovaries; assay type: in vivo, mouse; details: after 4 weeks of treatment, compared to control animals
Excerpt: The corpus luteum (CL) is the remnant of the graafian follicle after ovulation consisting mainly of connective tissue, granulosa and theca interna cells. The presence of Corpora lutea in an ovary is indicative of recent ovulation. We therefore examined the ovaries of mP-1 and vehicle treated mice for CL formation. After 4 weeks of treatment of C57B1/6J mice with induced endometriosis with mP-1, ovaries were removed, fixed in formalin and paraffin embedded. Ovaries from twelve, randomly chosen mice (three mice of both groups from the first two experiments) were sectioned (4-6 μm), and four consecutive sections were put on one slide. Every other slide was then stained with hematoxylin and eosin (H/E). The highest number of Corpora lutea per ovary on each slide was recorded, all numbers added and the mean number calculated.

Female SCID mice = details: mouse, in vivo
Description: Female SCID mice were injected with human pancreatic tumor cells subcutaneously. When tumors reached a volume of approximately 100 mm^3 endostatin or placebo treatment was initiated and continued until the end of the study. After three days, females were mated.
Human BxPC-3 cells were grown in cells culture as described above. After washing with sterile PBS, cells were trypsinized and briefly re-suspended in RPMI 1640 medium containing 10% fetal calf serum (FCS) and 1% glutamine penicillin streptomycin (GPS) solution. After centrifuging, the cell concentration was adjusted to 50×10^6 cells/ml in additive-free RPMI 1640 medium and kept on ice. Female SCID mice were shaved on the dorsal side and the naked skin was cleaned with ethanol prior to injection. A suspension of 5×10^6 cells/ml in 100 μl was then injected subcutaneously into the dorsa of these mice at about one centimetre left of the midline.
Mice were weighed and tumors were measured every 7 days in two diameters using a dial-caliper. Tumor volumes were calculated using the formula a^2×b×0.52, while a being the shorter and b being the longer diameter. When tumors had reached a volume of approximately 100 mm^2 mice were divided into four groups.
During the first experiment, one group received endostatin (20 mg/kg; n=8) or vehicle (n=8) via subcutaneous osmotic pumps (Durect Corp., Cupertino, Calif.). Pumps were inserted via a small incision and placed into a subcutaneous pocket on the right lateral aspect of the animals' dorsa. The pumps were changed every week for a total of four weeks.
The other group received daily subcutaneous injections of endostatin (100 mg/kg, n=5) or vehicle (n=5) for the same period.
During a second study we repeated the experiment with endostatin in subcutaneous pumps. The other group in this series received the murine N-terminal fragment of endostatin (mP-1) at a dose of 2.5 mg/kg twice daily or PBS (n=5 each).
Three days after initiation of treatment female mice were added to a cage containing a male SCID mouse in a 1:1 ratio. All males had been housed separately three days prior to encountering the females and female bedding had been added to the male cages to enhance the males' libido.
For the following seven days every female was checked for a vaginal mucous plug as a sign of mating. These exams were performed during the early morning hours to optimize the results. Once a mucous plug had been noticed, mating was considered ‘successful’, and the female was not further examined in order to minimize iatrogenic stress.
Over the course of pregnancy the following parameters were assessed: ‘Mating Time’ describing the time between male encounter and the occurrence of a mucous plug; ‘Pregnancy Rate’, measured by ultrasound 15 days after the mucous plug was observed. The number of viable fetus was counted during this procedure; ‘Length of Pregnancy’, as measured from the time of successful mating to delivery; ‘Number of Total and Viable Litter’, counted on the day of birth; ‘Weight of Individual Pup’, by weighing the entire litter on the day of birth and calculating the mean weight.

[3] = tested on: vessel density (CD31) of LLC tumors; experiment: Vessel density (CD31 staining) of LLC tumor sections; assay type: in vivo, mouse; details: peptides 2.8 mg/kg/d s.c. twice a day
Description: To determine the effect on angiogenesis after mP1 treatment, LLC tumors treated with mP1, mP2, and endostatin at equimolar concentration were analyzed for vessel density (CD31). […] In each case, peptides were administered twice a day s.c. and LLC tumor sections from day 13 were formalin-fixed paraffin-embedded and then stained with CD31 (PECAM). FIG. 2C show the determination of vessel density and the Y axis is expressed as %CD31/high power field (hpf).
Tumors were fixed in 10% buffered Formalin overnight at 4° C. The next day, tumors were washed three times in PBS and paraffin-embedded. Sections (5 μm) were permeabilized with 40 μg/ml proteinase K (Roche Diagnostics Corp.) in 0.2 M Tris-HCl buffer (pH 7.6) for 25 minutes at 37° C. and washed with PBS. PECAM (1:250) was incubated at 4° C. overnight. Stainings were amplified using tyramide signal amplification direct and indirect kits (NEN Life Science Products Inc., Boston, Mass.). Sections were photographed at 400× magnification using a NIKON TE300 microscope. Vessel density (average of three fields) was determined by IPLab software. The unpaired Student t-test was used for statistical analysis.

Substance: ATAQDFQPVLHLVALNTPLSGGMRGIR [mP1-H1/3A]
arrest of the estrus cycle (female C57BL/6 mice): Neither mP-1, not the other two peptides, mP-6 and mP-1-H led to an arrest of the estrus cycle

Substance: GSEGPLKPGARIFSFDGKDVLRHPT (listed as Homo sapiens) [hP5]
inhibited BxPC-3 (tumor inhibition) [1]: 29%

Substance: GSQGQVQPGARIFSFDGRDVLRHPA (listed as Mus musculus) [mP5]
inhibited LLC (tumor inhibition) (LLC): No or insignificant activity

Substance: HPAWPQKSVWHGSDPSGRRLMESY [mP6]
arrest of the estrus cycle (female C57BL/6 mice): Neither mP-1, not the other two peptides, mP-6 and mP-1-H led to an arrest of the estrus cycle

Substance: HPTWPQKSVWHGSDPNGRRLTESY (listed as Homo sapiens) [hP6]
inhibition of EC migration ([2]; 200 and 100 ng/ml, VEGF 5 ng/ml): only inhibited at doses of 100 and 200 ng/ml
inhibition of EC migration ([2]; concentrations lower than 100 ng/ml): no inhibition

Substance: HSHRDFQPVLHLVALNSPLSGGMRG (listed as Homo sapiens) [hP1]
inhibited BxPC-3 (tumor inhibition) [1]: 39%
inhibition of EC migration ([2]; 500 ng/ml, VEGF 5 ng/ml): no inhibition
inhibition of EC migration ([2]; 100, 62.5, and 25 ng/ml, VEGF 5 ng/ml): best inhibition

Substance: HTHQDFQPVLHLVAL (listed as Mus musculus) [mP1-15]
tumor volume (LLC): inhibit tumor volume

Substance: HTHQDFQPVLHLVALNTPLS (listed as Mus musculus) [mP1-20]
tumor volume (LLC): inhibit tumor volume

length of pregnancy (Female SCID mice): 20 days
litter size per delivery (Female SCID mice): 7.4±1.3
mean weight of pups on the day of delivery (Female SCID mice): 1.29 g
pregnancy rate with live births (Female SCID mice): All mice receiving mP-1 became pregnant
Substance: HTHQDFQPVLHLVALNTPLSGGMRGIR [mP1]
arrest of the estrus cycle (female C57BL/6 mice): Neither mP-1, not the other two peptides, mP-6 and mP-1-H led to an arrest of the estrus cycle
mean number of Corpora lutea in ovaries (C57B1/6J mice): did not reduce the mean number of Corpora lutea
effect on the offspring (Female SCID mice): did not see any negative effect on the offspring

Substance: MRGIRGA DFQAFQQARA VGLSGTFR (MRGIRGADFQAFQQARAVGLSGTFR; listed as Mus musculus) [mP2]
LLC tumor formation (LLC; higher concentration 14 mg/kg/d): could inhibit LLC tumor formation as well as mP1 at 2.8 mg/kg/d
inhibited LLC (tumor inhibition) (LLC): No or insignificant activity
reduction of vessel density (%CD31/hpf) [3]: no effect

Substance: TFRAFLSSRLQDLYSIVRRADRAAV (listed as Homo sapiens) [hP3]
inhibited BxPC-3 (tumor inhibition) [1]: failed to inhibit tumor growth

Reference: US7645735B2, “Anti-angiogenic peptides for treating or preventing endometriosis” (Children's Medical Center Corporation, priority 2003, dated 2010)
